In patent US9730914B2, “3,5-diaminopyrazole kinase inhibitors” (Axikin Pharmaceuticals, Inc., priority 2014, dated 2017):

How the values were obtained:
JAK2 = target: T1, JAK2 (Homo sapiens, UniProt O60674); test: Kinase competition binding assay (Kd, qPCR readout), JAK2; settings: for Kd: Kd class, JAK2, read-out: JAK2 Activity Level; for RCK:JAK2 selectivity ratio: ratio Kd (JAK2): Kd(RCK)
T1 construct: made in house; host or cells: E. coli BL21-derived host (T7 phage) or HEK-293
Outline: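 Competition binding: DNA-tagged kinase (T7 phage or HEK-293-expressed), immobilized biotinylated ligand beads and compound in SeaBlock/PBS/Tween/DTT buffer, 1 hour at room temperature; bound kinase eluted and quantified by qPCR. Kd from 11-point 3-fold dilution, top 30,000 nM typically, final DMSO 1%.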

[1] = target: T2, kinase domain protein of RC kinase (RCK) (Homo sapiens, UniProt Q56UN5); test: Kinase competition binding assay (Kd, qPCR readout), RC kinase; settings: Kd class, read-out: RCK Activity Level
T2 construct: made in house; host or cells: E. coli BL21-derived host (T7 phage) or HEK-293
T2 sequence (Q56UN5 1061-1324 limits assumed): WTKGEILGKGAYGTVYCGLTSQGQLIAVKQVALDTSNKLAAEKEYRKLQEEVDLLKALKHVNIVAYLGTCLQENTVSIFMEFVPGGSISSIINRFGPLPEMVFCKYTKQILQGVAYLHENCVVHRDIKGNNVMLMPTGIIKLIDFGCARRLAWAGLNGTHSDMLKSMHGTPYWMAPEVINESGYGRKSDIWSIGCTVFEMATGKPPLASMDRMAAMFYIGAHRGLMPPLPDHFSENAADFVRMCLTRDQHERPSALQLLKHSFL
Outline: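 Competition binding: DNA-tagged kinase (T7 phage or HEK-293-expressed) plus immobilized biotinylated ligand beads and compound, 1 h at room temperature, 1% DMSO. Bead-bound kinase eluted and quantified by qPCR. Kd from 11-point 3-fold dilution, top 30,000 nM, retested lower if below 0.5 nM.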

JAK3 = target: T3, JAK3 (Homo sapiens, UniProt P52333); test: Kinase competition binding assay (Kd, qPCR readout), JAK3; settings: for Kd: Kd class, JAK3, read-out: JAK3 Activity Level; for RCK:JAK3 selectivity ratio: ratio Kd (JAK3): Kd (RCK)
T3 construct: made in house; host or cells: E. coli BL21-derived host (T7 phage) or HEK-293
T3 sequence (P52333 811-1124 limits assumed): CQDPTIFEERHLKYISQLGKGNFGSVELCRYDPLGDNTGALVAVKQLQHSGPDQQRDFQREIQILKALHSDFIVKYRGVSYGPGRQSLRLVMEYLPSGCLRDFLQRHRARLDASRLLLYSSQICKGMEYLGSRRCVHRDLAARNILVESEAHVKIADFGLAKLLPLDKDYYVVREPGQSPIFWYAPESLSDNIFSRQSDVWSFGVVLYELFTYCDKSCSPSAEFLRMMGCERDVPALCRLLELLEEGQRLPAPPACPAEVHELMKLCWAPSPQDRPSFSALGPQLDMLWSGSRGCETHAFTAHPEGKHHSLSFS
Outline: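 Competition binding in which kinase, either T7 phage-tagged or HEK-293-expressed and DNA-tagged, was exposed to immobilized biotinylated ligand and test compound for 1 h at room temperature. Bead-bound kinase was eluted and quantified by qPCR. Kd came from 11-point 3-fold dilutions, top concentration 30,000 nM and 1% DMSO, repeated lower if below 0.5 nM.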

T1 sequence (O60674 840-1132 limits assumed): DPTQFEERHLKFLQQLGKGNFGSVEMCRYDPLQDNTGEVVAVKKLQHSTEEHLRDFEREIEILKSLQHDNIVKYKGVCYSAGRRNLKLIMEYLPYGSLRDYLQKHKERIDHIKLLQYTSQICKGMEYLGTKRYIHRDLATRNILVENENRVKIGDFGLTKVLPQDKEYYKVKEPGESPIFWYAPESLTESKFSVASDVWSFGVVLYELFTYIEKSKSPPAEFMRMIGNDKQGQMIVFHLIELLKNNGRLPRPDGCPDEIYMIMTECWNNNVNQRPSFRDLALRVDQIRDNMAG

| SMILES | Kd (JAK2) | RCK:JAK2 selectivity ratio (JAK2) | Kd [1] | Kd (JAK3) | RCK:JAK3 selectivity ratio (JAK3) |
| --- | --- | --- | --- | --- | --- |
| Cc1cc(Nc2n[nH]c(NCc3ccc(O)cc3)c2C(N)=O)ccc1N1CCCCC1 [reference compound] | < 0.05 µM | C (C represents 1<Kd (JAK2): Kd (RCK)<10) | < 0.05 µM | 0.05 to 0.1 µM | C (C represents 1<Kd (JAK3): Kd (RCK)<10) |
| Cc1cc(CNc2[nH]nc(Nc3ccc(N4CCCCC4)cn3)c2C(N)=O)cc(C)c1O [Compound 33, 5-((4-hydroxy-3,5-dimethylbenzyl)amino)-3-((5-(piperidin-1-yl)pyridin-2-yl)amino)-1H-pyrazole-4-carboxamide] | 0.1 to 1 µM | C (C represents 1<Kd (JAK2): Kd (RCK)<10) | 0.05 to 0.1 µM | > 1 µM | B (B represents 10<Kd (JAK3): Kd (RCK)<100) |
| Cc1cc(Nc2n[nH]c(NCc3ccc(O)cc3)c2C(N)=O)cnc1N1CCN(C(C)C)CC1 [reference compound] | < 0.05 µM | D (D represents Kd(JAK2): Kd (RCK)<1) | < 0.05 µM | < 0.05 µM | C (C represents 1<Kd (JAK3): Kd (RCK)<10) |
| Cc1cc(CNc2[nH]nc(Nc3ccc(N4CCN(C)CC4)cc3)c2C(N)=O)cc(C)c1O [Compound 10, 5-((4-hydroxy-3,5-dimethylbenzyl)amino)-3-((4-(4-methylpiperazin-1-yl)phenyl)amino)-1H-pyrazole-4-carboxamide] | > 1 µM | B (B represents 10<Kd(JAK2): Kd (RCK)<100) | 0.05 to 0.1 µM | > 1 µM | A (A represents Kd (JAK3): Kd (RCK)>100) |
| CC(=O)Nc1cccc(Nc2n[nH]c(NCc3cc(C)c(O)c(C)c3)c2C(N)=O)c1 [Compound 40, 3-((3-acetamidophenyl)amino)-5-((4-hydroxy-3,5-dimethylbenzyl)amino)-1H-pyrazole-4-carboxamide] | > 1 µM | C (C represents 1<Kd (JAK2): Kd (RCK)<10) | > 1 µM | > 1 µM | C (C represents 1<Kd (JAK3): Kd (RCK)<10) |
| Cc1cc(CNc2[nH]nc(Nc3ccc(N)cc3)c2C(N)=O)cc(C)c1O [Compound 47, 3-((4-aminophenyl)amino)-5-((4-hydroxy-3,5-dimethylbenzyl)amino)-1H-pyrazole-4-carboxamide] | > 1 µM | C (C represents 1<Kd (JAK2): Kd (RCK)<10) | > 1 µM | > 1 µM | C (C represents 1<Kd (JAK3): Kd (RCK)<10) |
| Cc1cc(CNc2[nH]nc(Nc3ccc(N4CCSCC4)cc3)c2C(N)=O)cc(C)c1O [Compound 46, 5-((4-hydroxy-3,5-dimethylbenzyl)amino)-3-((4-thiomorpholinophenyl)amino)-1H-pyrazole-4-carboxamide] | 0.1 to 1 µM | B (B represents 10<Kd(JAK2): Kd (RCK)<100) | < 0.05 µM | > 1 µM | B (B represents 10<Kd (JAK3): Kd (RCK)<100) |
| NC(=O)c1c(Nc2ccc(-c3cnco3)cc2)n[nH]c1NCc1ccc(O)cc1 [reference compound] | < 0.05 µM | C (C represents 1<Kd (JAK2): Kd (RCK)<10) | < 0.05 µM | < 0.05 µM | C (C represents 1<Kd (JAK3): Kd (RCK)<10) |
| Cc1cc(Nc2n[nH]c(NCc3cc(C)c(O)c(C)c3)c2C(N)=O)cnc1N1CCN(C(C)C)CC1 [Compound 13, 5-((4-hydroxy-3,5-dimethylbenzyl)amino)-3-((6-(4-isopropylpiperazin-1-yl)-5-methylpyridin-3-yl)amino)-1H-pyrazole-4-carboxamide] | > 1 µM | B (B represents 10<Kd(JAK2): Kd (RCK)<100) | > 1 µM | > 1 µM | B (B represents 10<Kd (JAK3): Kd (RCK)<100) |
| NC(=O)c1c(Nc2ccc(N3CCCCC3)cc2)n[nH]c1NCc1ccc(O)cc1 [reference compound] | < 0.05 µM | C (C represents 1<Kd (JAK2): Kd (RCK)<10) | < 0.05 µM | < 0.05 µM | C (C represents 1<Kd (JAK3): Kd (RCK)<10) |
| Cc1cc(CNc2[nH]nc(Nc3ccc(N4CCC(N5CCCC5)CC4)nc3)c2C(N)=O)cc(C)c1O [Compound 49, 5-((4-hydroxy-3,5-dimethylbenzyl)amino)-3-((6-(4-(pyrrolidin-1-yl)piperidin-1-yl)pyridin-3-yl)amino)-1H-pyrazole-4-carboxamide] | 0.1 to 1 µM | A (A represents Kd (JAK2): Kd (RCK)>100) | < 0.05 µM | 0.1 to 1 µM | A (A represents Kd (JAK3): Kd (RCK)>100) |
| Cc1cc(CNc2[nH]nc(Nc3ccc(NC(=O)c4ccc(F)cc4)cc3)c2C(N)=O)cc(C)c1O [Compound 53, 3-((4-(4-fluorobenzamido)phenyl)amino)-5-((4-hydroxy-3,5-dimethylbenzyl)amino)-1H-pyrazole-4-carboxamide] | > 1 µM | A (A represents Kd (JAK2): Kd (RCK)>100) | 0.1 to 1 µM | > 1 µM | A (A represents Kd (JAK3): Kd (RCK)>100) |
| NC(=O)c1c(Nc2ccc(N3CCC(N4CCCC4)CC3)nc2)n[nH]c1NCc1ccc(O)cc1 [reference compound] | < 0.05 µM | D (D represents Kd(JAK2): Kd (RCK)<1) | < 0.05 µM | < 0.05 µM | C (C represents 1<Kd (JAK3): Kd (RCK)<10) |
| NC(=O)c1c(Nc2ccc(CN3CCOCC3)cc2)n[nH]c1NCc1ccc(O)cc1 [reference compound] | < 0.05 µM | D (D represents Kd(JAK2): Kd (RCK)<1) | < 0.05 µM | < 0.05 µM | D (D represents Kd (JAK3): Kd(RCK)<1) |
| Cc1cc(CNc2[nH]nc(Nc3ccc(-c4cccnc4)cc3)c2C(N)=O)cc(C)c1O [Compound 16, 5-((4-hydroxy-3,5-dimethylbenzyl)amino)-3-((4-(pyridin-3-yl)phenyl)amino)-1H-pyrazole-4-carboxamide] | > 1 µM | B (B represents 10<Kd(JAK2): Kd (RCK)<100) | 0.05 to 0.1 µM | > 1 µM | B (B represents 10<Kd (JAK3): Kd (RCK)<100) |
| Cc1cc(CNc2[nH]nc(Nc3ccc(N(C)C)cc3)c2C(N)=O)cc(C)c1O [Compound 50, 3-((4-(dimethylamino)phenyl)amino)-5-((4-hydroxy-3,5-dimethylbenzyl)amino)-1H-pyrazole-4-carboxamide] | > 1 µM | C (C represents 1<Kd (JAK2): Kd (RCK)<10) | 0.1 to 1 µM | > 1 µM | C (C represents 1<Kd (JAK3): Kd (RCK)<10) |
| Cc1cc(CNc2[nH]nc(Nc3ccc(N4C[C@@H](C)O[C@@H](C)C4)nc3)c2C(N)=O)cc(C)c1O [Compound 26] | > 1 µM | B (B represents 10<Kd(JAK2): Kd (RCK)<100) | 0.1 to 1 µM | > 1 µM | B (B represents 10<Kd (JAK3): Kd (RCK)<100) |
| Cc1cc(CNc2[nH]nc(Nc3ccc(-c4cc[nH]n4)cc3)c2C(N)=O)cc(C)c1O [Compound 54, 3-((4-(1H-pyrazol-3-yl)phenyl)amino)-5-((4-hydroxy-3,5-dimethylbenzyl)amino)-1H-pyrazole-4-carboxamide] | > 1 µM | B (B represents 10<Kd(JAK2): Kd (RCK)<100) | 0.1 to 1 µM | > 1 µM | B (B represents 10<Kd (JAK3): Kd (RCK)<100) |
| NC(=O)c1c(Nc2ccc(N)cc2)n[nH]c1NCc1ccc(O)cc1 [reference compound] | 0.05 to 0.1 µM | D (D represents Kd(JAK2): Kd (RCK)<1) | 0.1 to 1 µM | 0.1 to 1 µM | D (D represents Kd (JAK3): Kd(RCK)<1) |
| Cc1cc(CNc2[nH]nc(Nc3ccc(N4CCC(C(C)C)CC4)cc3)c2C(N)=O)cc(C)c1O [Compound 58, 5-((4-hydroxy-3,5-dimethylbenzyl)amino)-3-((4-(4-isopropylpiperidin-1-yl)phenyl)amino)-1H-pyrazole-4-carboxamide] | > 1 µM | B (B represents 10<Kd(JAK2): Kd (RCK)<100) | 0.1 to 1 µM | > 1 µM | B (B represents 10<Kd (JAK3): Kd (RCK)<100) |
| Cc1cc(CNc2[nH]nc(Nc3ccc(N4CCC(Cl)CC4)cc3)c2C(N)=O)cc(C)c1O [Compound 34, 3-((4-(4-chloropiperidin-1-yl)phenyl)amino)-5-((4-hydroxy-3,5-dimethylbenzyl)amino)-1H-pyrazole-4-carboxamide] | > 1 µM | B (B represents 10<Kd(JAK2): Kd (RCK)<100) | 0.05 to 0.1 µM | > 1 µM | B (B represents 10<Kd (JAK3): Kd (RCK)<100) |
